In series [1] the test system is TNFα production in plasma. Briefly: In vivo TNFα model in Wistar rat. The settings on record: po, 1.5 h, 10 mg/kg p.o. 30 min before LPS i.p., plasma TNFα 90 min after LPS, male Wistar rats, read-out: % Inhibition to 10 mg/kg. The text has this: The TFNα is a cytokin playing a central role in inflammation mechanisms. Its production may be induced by injection of lipopolysaccharid (LPS). It has been shown that the intracellular AMPc increase, produced in particular by PDE4 inhibitors, decreases the TNFα production in in vitro and in vivo models. Therefore it matters here to quantify in vivo anti-inflammatory potential of the compounds of the invention, administrated by oral route (p.o.) by measuring inhibition of TNFα production in plasma in rat, the latter having received a intraperitoneal injection (i.p.) of lipolysaccharid (LPS). The treatment by the compounds of the invention or the carrier is administrated by oral route in male Wistar rats, 30 min. before LPS injection. The rats are sacrificed 90 min. after LPS stimulation, the blood is harvested on EDTA and TNFα concentration is measured in each plasma sample.

Series [2] addresses type 4 phosphodiesterases (PDE4). The series is described as follows: Inhibition of the phosphodiesterase (PDE4), enzymatic preparation from line U937. It is filed as biochemical. Particulars: PDE4 from cytosolic preparation of human cell line U937. As to the method:
The capacity of the formula (I) compounds of the invention to inhibit the cyclic nucleotide phosphodiesterases is evaluated by their Cl50 measurement (necessary concentration to inhibit 50% of enzymatic activity).
The type 4 phosphodiesterases are obtained from a cytosolic preparation extracted from the human origin cellular line U937 according to a method adapted from T. J. Torphy and al., 1992, J.Pharm.Exp. Ther. 263: 1195-1205
The other classes of phosphodiesterases are obtained after partial purification FPLC on Mono Q column. (anion exchange column) according to a method adapted from Lavan B. E., Lakey T., Houslay M. D. Biochemical Pharmacology, 1989, 38(22), 4123-4136., and from Silver P. J and al., 1988, Eur.J. Pharmacol. 150: 85-94, either, from human origin cellular lines for PDE 1 (monocytar line TPH1) and PDE5 (line MCF7 issued from an adenocarcinoma), or from dog aorta for PDE 3, or for the human PDE3A, from gene cloning in insect cells SF21 in baculovirus, according to a method adapted from Luckow, V. A. and al., 1991 in Recombinant DNA Technology&Applications.,eds. Prokop, Bajpai,R. K.&Ho,C. S., pp97-152. The enzymatic activity measurement of the different PDE classes, and in particular the PDE 4, is performed according to a method adapted from W. J. Thompson and al. 1979, Advances in Cyclic Nucleotide Research, Vol. 10: 69-92, ed. G. Brooker and al. Raven Press, NY.
For the Cl50 determination, the enzymatic activity is measured in the presence of inhibitor within concentration margins of 0.1 to 100 μM.
The following table illustrates the PDE4 inhibitory activity from enzymatic preparation obtained from the line U937.

The source of these data is patent publication US6828315B1, “1-Amino triazoloc4,3-a! quinazoline-5-ones and/or -5-thiones inhibiting phosphodiesterase IV” (Warner-Lambert LLC, priority 1999, dated 2004).

As a reminder, the melting point is the temperature of the solid-liquid transition. A word on the IC50: it is the concentration at which inhibition is half-maximal. A lower IC50 goes with greater potency in that assay.

In the case of `COc1ccc(Cn2c(=O)c3cc(Br)ccc3n3c(N4CCCCCC4)nnc23)cc1OC` [Compound 35, 1-Azepan-1-yl-7-bromo-4-(3,4-dimethoxy-benzyl)-4H-[1,2,4]triazolo[4,3-a]quinazolin-5-one], the melting point amounted to 185 °C. In addition, in series [1], the change in vivo at 10 mg/kg was -51%. Also, in series [2], the midpoint of inhibition, the IC50, lay at 0.02 µM.

`N#Cc1ccc(Cn2c(=O)c3cc(Br)ccc3n3c(N4CCCC4)nnc23)cc1` [Compound 46, 4-(7-Bromo-5-oxo-1-pyrrolidin-1-yl-5H-[1,2,4]triazolo[4,3-a]quinazolin-4-ylmethyl)-benzonitrile] had a melting point of 116 °C. Also, in series [1], the change in vivo at 10 mg/kg was -58%. This compound also displayed an IC50 in series [2] of 0.09 µM.

The compound `CN(C)c1nnc2n(Cc3ccc(O)cc3)c(=O)c3cc(Br)ccc3n12` [Compound 80, 7-Bromo-1-dimethylamino-4-(4-hydroxy-benzyl)-4H-[1,2,4]triazolo[4,3-a]quinazolin-5-one] returned a melting point of 284 °C. The compound also displayed a 50% inhibitory concentration (IC50) in series [2] of 0.073 µM.

`COC(=O)c1ccc(Cn2c(=O)c3cc(Br)ccc3n3c(N(C)C)nnc23)cc1` [Compound 81, 4-(7-Bromo-1-dimethylamino-5-oxo-5H-[1,2,4]triazolo[4,3-a]quinazolin-4-ylmethyl)-benzoic acid methyl ester] displayed a melting point of 197 °C. Besides, in series [2], the half-maximal inhibitory concentration (IC50) was determined as 0.016 µM.

Compound `CN(C)c1nnc2n(Cc3ccc(CC#N)cc3)c(=O)c3cc(Br)ccc3n12` [Compound 83, [4-(7-Bromo-1-dimethylamino-5-oxo-5H-[1,2,4]triazolo[4,3-a]quinazolin-4-ylmethyl)-phenyl]-acetonitrile] registered a melting point of 230 °C. For the same compound, in series [2], the IC50 came to 0.012 µM.

Compound `CN(C)c1nnc2n(CC#Cc3ccccc3)c(=O)c3cc(Br)ccc3n12` [Compound 89, 7-Bromo-1-dimethylamino-4-(3-phenyl-prop-2-ynyl)-4H-[1,2,4]triazolo[4,3-a]quinazolin-5-one] showed a melting point of 159 °C. Also, the half-maximal inhibitory concentration (IC50) in series [2] worked out at 0.027 µM.

`Cc1ccc2c(c1)c(=O)n(Cc1cccnc1)c1nnc(N3CCCCCC3)n21` [Compound 91, 1-Azepan-1-yl-7-methyl-4-pyridin-3-ylmethyl-4H-[1,2,4]triazolo[4,3-a]quinazolin-5-one]: the melting point came to 175 °C. Also, in series [1], the change in vivo at 10 mg/kg was -70%.

The compound `Cc1ccc2c(c1)c(=O)n(CC=Cc1ccccc1)c1nnc(N3CCCCCC3)n21` [Compound 92, 1-Azepan-1-yl-7-methyl-4-(3-phenyl-allyl)-4H-[1,2,4]triazolo[4,3-a]quinazolin-5-one] showed a melting point of 195 °C. In series [2], half-maximal inhibition (IC50) was put at 0.03 µM.

For the compound `Cc1ccc2c(c1)c(=O)n(Cc1ccc(CC(=O)O)cc1)c1nnc(N3CCCC3)n21` [Compound 96, [4-(7-Methyl-5-oxo-1-pyrrolidin-1-yl-5H-[1,2,4]triazolo[4,3-a]quinazolin-4-ylmethyl)-phenyl]-acetic acid], the melting point amounted to 262 °C. Besides, the 50% inhibitory concentration (IC50) in series [2] came out at 0.058 µM.

Take `COC(=O)C(c1ccccc1)n1nc(N(C)C)n2c3ccc(Br)cc3c(=O)nc12` (stereo not drawn) [Compound 156, (7-Bromo-1-dimethylamino-5-oxo-5H-[1,2,4]triazolo[4,3-a]quinazolin-3-yl)-phenyl-acetic acid methyl ester]: the melting point turned out to be 83 °C. Further, in series [2], 0.09 µM corresponded to half-maximal inhibition (IC50).

Regarding `O=c1c2cc(Br)ccc2n2c(N3CCCCCC3)nnc2n1Cc1ccccc1` [Compound 163, 1-(azepan-1-yl)-4-benzyl-7-bromo-4H-[1,2,4]triazolo[4,3-a]-quinazolin-5-one], the change in vivo at 10 mg/kg in series [1] was -64%.

`O=c1c2cc(I)ccc2n2c(N3CCCC3)nnc2n1Cc1ccccc1` [Compound 189, 4-Benzyl-7-iodo-1-pyrrolidin-1-yl-4H-[1,2,4]triazolo[4,3-a]quinazolin-5-one] came in with a melting point of 184 °C. Further, in series [2], the IC50 was determined as 0.078 µM.

The compound `Cc1ccc2c(c1)c(=O)n(Cc1ccccc1)c1nnc(N3CCCCCC3)n21` [Compound 190, 1-Azepan-1-yl-4-benzyl-7-methyl-4H-[1,2,4]triazolo[4,3-a]quinazolin-5-one] displayed a melting point of 183 °C. Also, inhibition in series [2] was half-maximal at 0.19 µM (IC50).

For the compound `Nc1ccc2c(c1)c(=O)n(Cc1ccccc1)c1nnc(N3CCCCCC3)n21` [Compound 224, 7-Amino-1-azepan-1-yl-4-benzyl-4H-[1,2,4]triazolo[4,3-a]quinazolin-5-one], the melting point is 240 °C (dec.). In series [2], this compound registered an IC50 of 0.075 µM.

Take `Nc1ccc2c(c1)c(=O)n(C/C=C/c1cccnc1)c1nnc(N3CCCC3)n21` [Compound 227, 7-Amino-4-((E)-3-pyridin-3-yl-allyl)-1-pyrrolidin-1-yl-4H-[1,2,4]triazolo[4,3-a]quinazolin-5-one]: the melting point was found to be 201 °C. The compound further registered a half-inhibitory concentration (IC50) in series [2] of 0.028 µM.

Consider `CN(C)c1nnc2n(C/C=C/c3ccccc3)c(=O)c3cc(N)ccc3n12` [Compound 229, 7-Amino-1-dimethylamino-4-((E)-3-phenyl-allyl)-4H-[1,2,4]triazolo[4,3-a]quinazolin-5-one], for which the melting point was determined as 198 °C. In series [2], this compound showed an IC50 of 0.08 µM.

`CNc1ccc2c(c1)c(=O)n(Cc1ccccc1)c1nnc(N3CCCC3)n21` [Compound 230, 4-Benzyl-7-methylamino-1-pyrrolidin-1-yl-4H-[1,2,4]triazolo[4,3-a]quinazolin-5-one] came in with a melting point of 171 °C. In addition, 0.002 µM corresponded to half-maximal inhibition in series [2] (IC50).

In the case of `CNc1ccc2c(c1)c(=O)n(Cc1ccc(C#N)cc1)c1nnc(N3CCCC3)n21` [Compound 231, 4-(7-Methylamino-5-oxo-1-pyrrolidin-1-yl-5H-[1,2,4]triazolo[4,3-a]quinazolin-4-ylmethyl)-benzonitrile], the melting point worked out at 270 °C. The compound also returned an IC50 in series [2] of 0.00027 µM.

Take `CCNc1ccc2c(c1)c(=O)n(Cc1ccccc1)c1nnc(N3CCCC3)n21` [Compound 233, 4-Benzyl-7-ethylamino-1-pyrrolidin-1-yl-4H-[1,2,4]triazolo[4,3-a]quinazolin-5-one]: the melting point was 225 °C. Also, the half-inhibitory concentration (IC50) in series [2] was 0.18 µM.

In turn, `CN(C)C(=O)Cc1ccc(Cn2c(=O)c3cc(Br)ccc3n3c(N4CCCC4)nnc23)cc1` [Compound 242, 2-[4-(7-Bromo-5-oxo-1-pyrrolidin-1-yl-5H-[1,2,4]triazolo[4,3-a]quinazolin-4-ylmethyl)-phenyl]-N,N-dimethyl-acetamide] returned a melting point of 202 °C. This compound registered an IC50 in series [2] of 0.011 µM.

In turn, `O=C(Cc1ccc(Cn2c(=O)c3cc(Br)ccc3n3c(N4CCCC4)nnc23)cc1)NO` [Compound 243, 2-[4-(7-Bromo-5-oxo-1-pyrrolidin-1-yl-5H-[1,2,4]triazolo[4,3-a]quinazolin-4-ylmethyl)-phenyl]-N-hydroxy-acetamide] displayed a melting point of 229 °C. The IC50 in series [2] is 0.028 µM.

Consider `Cc1ccc2c(c1)c(=S)n(CC=Cc1cccnc1)c1nnc(N(C)C)n21` [Compound 246, 1-Dimethylamino-7-methyl-4-(3-pyridin-3-yl-allyl)-4H-[1,2,4]triazolo[4,3-a]quinazoline-5-thione], for which the melting point came out at 133 °C. The same compound yielded an IC50 in series [2] of 0.041 µM.
